Results on one compound are retold here after US20020028918A1, “Styryl dyes” (KABUSHIKI KAISHA HAYASHIBARA SEIBUTSU KAGAKU KENKYUJO, priority 2000, published 2002).

Series [1] is described as follows: Light resistance of styryl dye thin layer under xenon lamp exposure. The class given is physicochemical. To be noted: thin layer on glass, 500 W xenon lamp 25 min, transmittance at 600 nm. As for the experimental part: Light-resistance Improvement of Styryl Dyes
Thereafter, in the usual manner, a prescribed amount of the resulting solution was dropped on either surface of a polished glass substrate, 5 cm×5 cm, while the glass substrate was rotated at a rotation rate of 1,000 rpm for one minute to uniformly coat the solution thereupon, and sequentially blown with hot air and cold air to dry the coated solution.
The resulting glass substrates coated with the styryl dyes were measured for transmittance (T0) at a wavelength of 600 nm, and then exposed with light for 25 min using a 500 W xenon lamp. Immediately after that, the resulting substrates were remeasured for transmittance (T) at a wavelength of 600 nm, and the transmittance of T and T0 dye substrated for the Equation 1 to calculate the residual percentage (%). In parallel, control systems, which 15 (mg) of the conventional compound represented by Chemical Formula 44 was dissolved to TFP with or without two mg of the azo organic metal complex represented by Chemical Formula 38 as a light-resistant improver, were provided and treated similarly as above. [formula]

The nature of series [2]: Thermal property by DTA and TGA (decomposition point).
Description: Thermal Property of Cyanine Dye
An adequate amount of any one of the styryl dyes of the present invention in Table 1 as test specimens was placed in a vessel and subjected to conventional differential thermal analysis (hereinafter abbreviated as “DTA”) and thermogravimetric analysis (hereinafter abbreviated as “TGA”) using “MODEL TG/DTA 220”, a digital thermo analyzer commercialized by Seiko Instruments Inc., Tokyo, Japan, to determine their melting points, i.e., temperatures at which the styryl dyes as test specimens begin to absorb heat on TGA, and decomposition points, i.e., temperatures at which the styryl dyes as test specimens begin to lose their weight on DTA. In parallel, the conventional related compound represented by Chemical Formula 44 was analyzed similarly as above. […] In TGA and DTA, the environmental temperature was set to an increasing temperature mode at a rate of 10° C./min.

For the compound `CN(C)c1ccc(C=CC2=[N+](C)c3ccc(Cl)cc3C2(C)C)cc1.Cc1ccc(S(=O)(=O)[O-])cc1` [Chemical Formula 44], the figures for the “Residual percentage of dye (%)” value in series [1] (no light-resistant improver added (Formula 26 is itself combined with azo organic metal complex anion)) and in series [1] (with addition of the azo organic metal complex of Chemical Formula 38) were 3.2% and 89.5%, respectively. For the same compound, in series [2] (DTA/TGA, MODEL TG/DTA 220, temperature increasing at 10° C./min), the “Decomposition point (° C.)” value turned out to be 236.1 °C. Also, the “Decomposition behaviour around the decomposition point” value in series [2] (TGA/DTA, 10° C./min) is on record as “very slowly decomposed at around the decomposition point”.
